Earlier results in patent US20210061712A1, “COMPOSITE STRUCTURAL MATERIAL COMPOSITIONS RESISTANT TO BIODEGRADATION” (The University of British Columbia, priority 2018, published 2021).
Like-named read-outs stand apart in the source and are kept apart here.

Key:
[1] = test system: Desulfovibrio desulfricans strain; conditions: pipe's internal wall coated with the oxide in epoxy

## silver oxide
[1]
  bacterial corrosion of concrete pipe: reduce the bacterial corrosion

## [Na+].[Na+].[O]=[W](=[O])([O-])[O-] [sodium tungstate]
A. Thiooxidans cells
  growth of A. thiooxidans cells: completely inhibits the growth

## [Cu+2] [Cu]
SRB species; 20 mg/L
  activity of SRB species: reduced

## [Zn+2] [Zn]
SRB species; 20 mg/L
  activity of SRB species: reduced

## O=CCCCC=O [glutaraldehyde]
SRB species; 10 mg/L
  activity of SRB species: reduced
